Assay results as given in the METLIN SMRT retention time set (Domingo-Almenara et al. 2019).

Assay: gradient 5% acetonitrile 3 min, to 50% in 2 min, to 85% in 15 min, held 3 min, 100 µL/min
Details: column: Zorbax Extend-C18 2.1 x 50 mm; eluents: water / acetonitrile, 0.1% formic acid
Method in brief: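 Standards, all pure, were combined into mixtures of ~100 molecules and run at 100 μL/min on a Zorbax Extend-C18 column (2.1 × 50 mm, 1.8 μm) with water and acetonitrile, each containing 0.1% formic acid. A coupled quadrupole time-of-flight mass spectrometer operated in positive and negative ionization mode. Retention time values come from computationally picked adduct peaks, each inspected manually.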

With CC(=O)N1CCc2cc(S(=O)(=O)C(C)CC(=O)N3CCN(c4ccc(C)cc4C)CC3)ccc21 (stereo unspecified) the RP-LC retention time was 968 s.
Cn1cnc2cc(-c3noc(CNC(=O)Cc4ccc(Cl)cc4)n3)ccc21 gave an RP-LC retention time of 652 s.
CCOC(=O)Cc1csc(NC(=O)C2CCCN(c3ncnc4c3nc3n4CCCCC3)C2)n1 (stereo unspecified) showed an RP-LC retention time of 810 s.
For COc1ccc(-c2nc(Cc3noc(Cc4cccc(F)c4)n3)c(C)o2)cc1, the RP-LC retention time was 1000 s.
CCN1C(=O)c2cccnc2Sc2cc(CNC(=O)c3ccc(C#N)cc3F)ccc21 gave an RP-LC retention time of 760 s.
Molecule O=C(c1cnn(-c2ccc([N+](=O)[O-])cc2)c1C1CCNCC1)N1CCN(c2ccccn2)CC1 has an RP-LC retention time of 563 s.
For COc1cc(CNC(=O)CCC(=O)N2CC3CCCN3c3ccccc32)cc(OC)c1OC (stereo unspecified), the RP-LC retention time was 818 s.
For CCCc1nnsc1C(=O)NCc1nc(C)no1, the RP-LC retention time was 656 s.
In the case of O=C(NCCc1ccccc1)N1CCC(c2noc(-c3ccccc3)n2)C1 (stereo unspecified), the RP-LC retention time is reported as 914 s.
With O=C(NCc1csc(C2CCN(C(=O)c3cc(F)ccc3Cl)CC2)n1)C1CCC1 the RP-LC retention time was 713 s.
For COCCN(Cc1ccc(Cl)cc1)Cc1cc(=O)n2cc(C)ccc2n1, the RP-LC retention time was 662 s.
CC1CCCN(CCCNC(=O)Cn2c3ccccc3c3cnn(C)c(=O)c32)C1 (stereo unspecified) showed an RP-LC retention time of 612 s.
O=C(CSc1ncccn1)Nc1nc(-c2ccccc2)c(-c2ccccc2)o1 showed an RP-LC retention time of 905 s.
Molecule COc1ccc(-c2oc3c(CC=C(C)C)c(OC4O[C@H](CO)[C@@H](O)[C@H](O)[C@H]4O)cc(O)c3c(=O)c2OC2O[C@@H](C)[C@H](O)[C@@H](O)[C@H]2O)cc1 (stereo partly specified) has an RP-LC retention time of 669 s.
In the case of COc1cccc(C(=O)NCCOc2cccc(C(F)(F)F)c2)c1OC, the RP-LC retention time is reported as 972 s.
CCc1nncn1C1CCN(S(=O)(=O)c2ccc(C)c(Cl)c2)CC1 gave an RP-LC retention time of 754 s.
For O=C(COc1ccccc1F)N1CCN(Cc2csc(-c3ccccc3)n2)CC1, the RP-LC retention time was 606 s.
COc1ccccc1N1CCN(CCCCN2C(=O)CCC2=O)CC1 gave an RP-LC retention time of 650 s.
Work on CCc1nnc(C2CN(C)CC23CCN(S(=O)(=O)c2cc(F)ccc2OC)CC3)o1 (stereo unspecified) yielded an RP-LC retention time of 612 s.
With Cc1noc(/C=C/c2ccc(S(=O)(=O)NCC3CCCO3)s2)c1NC(=O)C1CC1 (stereo unspecified) the RP-LC retention time was 677 s.
Molecule Cc1ccc(NC(=O)Cn2c(=O)n(-c3ccccc3)c3ncccc32)cc1C has an RP-LC retention time of 906 s.
O=S(=O)(c1ccccc1C(F)(F)F)N1CCc2nc(-c3ccccc3)ncc2C1 gave an RP-LC retention time of 1110 s.
With CCOC(=O)N1CCC(NC(=O)c2cc3sccc3n2Cc2ccc(Cl)cc2)CC1 the RP-LC retention time was 1060 s.
Molecule O=C(O)c1cc(N2CCN(CC(=O)N3CCCCCC3)CC2)ccc1NC(=O)C1CCC1 has an RP-LC retention time of 636 s.
With CCOc1ccc(NS(=O)(=O)c2cc(C(=O)Nc3ccc(Br)cc3)n[nH]2)cc1 the RP-LC retention time was 927 s.
With CCCCN(CC)S(=O)(=O)c1cc(-c2nnc(C)o2)co1 the RP-LC retention time was 869 s.
Work on CN(c1ccccc1)S(=O)(=O)c1ccc(C(=O)Nc2nccs2)cc1 yielded an RP-LC retention time of 807 s.
Molecule COCCCN1CN=C(Nc2nc(C)c3ccccc3n2)NC1 has an RP-LC retention time of 626 s.
In the case of Cc1ccc(NC(=O)c2cnc(-c3ccccc3)nc2-c2ccncc2)c(Br)c1, the RP-LC retention time is reported as 987 s.
In the case of Brc1ccc(-c2nnc(Cc3nc(-c4ccccc4)no3)o2)cc1, the RP-LC retention time is reported as 1100 s.
For O=C(NCCc1ccccc1)NCc1cccn1Cc1ccc(F)cc1, the RP-LC retention time was 965 s.
Molecule Cc1ccc(C(=O)NCC2CCCN(S(=O)(=O)c3c(C)c(C)cc(C)c3C)C2)cc1 (stereo unspecified) has an RP-LC retention time of 1100 s.
Work on O=C(NC1CC1)C1CCCN(S(=O)(=O)c2cc(-c3noc(C4CCCC4)n3)cs2)C1 (stereo unspecified) yielded an RP-LC retention time of 972 s.
In the case of CC(C)N1CCN(C(=O)c2cn(-c3ccc(-c4nc(C(C)(C)C)no4)cn3)cn2)CC1, the RP-LC retention time is reported as 671 s.
Work on O=C(CN1CCN(C(=O)Nc2ccc(Cl)cc2)CC1=O)NC1CC1 yielded an RP-LC retention time of 605 s.
With CO[C@H]1CN(C2CCN(Cc3cn(C(C)C)c4ccccc34)CC2)[C@H]1c1ccncc1 the RP-LC retention time was 590 s.
Cc1ccc(Cl)cc1-n1ncc2c(=O)n(Cc3nc(-c4cccc(F)c4)no3)cnc21 gave an RP-LC retention time of 1210 s.
For COc1cccc(NS(=O)(=O)c2cc3n(c2)CCCNC3=O)c1, the RP-LC retention time was 632 s.
Molecule COc1cccc2sc(N3CCN(C(=O)C4CCN(S(C)(=O)=O)CC4)CC3)nc12 has an RP-LC retention time of 697 s.
In the case of COc1ccc(OC)c(NC(=O)COc2cc(C(F)(F)F)c3c(C)nn(C)c3n2)c1, the RP-LC retention time is reported as 1100 s.
Work on Cc1cc(N2CCN(C)CC2)nc2ccc(NC(=O)Nc3ccc(F)cc3)cc12 yielded an RP-LC retention time of 587 s.
In the case of Cc1cc(N2CCN(c3ccccn3)CC2)n2nc(-c3ccccc3)c(C)c2n1, the RP-LC retention time is reported as 614 s.
With COc1ccc(Br)cc1CNC(=O)c1sc2ncccc2c1-n1cccc1 the RP-LC retention time was 1130 s.
With COc1cc(CCC(=O)N2C[C@@H](C(N)=O)[C@H](c3n[nH]c(C)n3)C2)on1 the RP-LC retention time was 566 s.
Molecule Cn1c(C(=O)N2CCN(c3ccccn3)CC2)c(N2CCCC2=O)c2cc(F)ccc21 has an RP-LC retention time of 635 s.
For Cc1ccc(S(=O)(=O)Cc2nc(-c3ccc4c(c3)OCO4)no2)cc1, the RP-LC retention time was 951 s.
Work on COC(=O)c1nnn(-c2cc(Cl)ccc2C)c1C(=O)OC yielded an RP-LC retention time of 933 s.
O=C(Nc1ccc(OCc2nnc(-c3ccc(Cl)cc3)o2)cc1)c1ccoc1 showed an RP-LC retention time of 942 s.
For CC1=C(c2ccc(C)cc2)S(=O)(=O)N=C1N1CCC(NC(=O)c2sccc2C)CC1, the RP-LC retention time was 596 s.
Molecule CCCNC(=O)C1CCCN(c2ccc(SCC(=O)Nc3cc(C)c(Cl)cc3OC)nn2)C1 (stereo unspecified) has an RP-LC retention time of 838 s.
For Cc1cc(C)c(S(=O)(=O)N2CCCCC2)c(C)c1N(C)S(=O)(=O)c1ccccc1, the RP-LC retention time was 1060 s.
Molecule CC(C)OCCCNC(=O)c1c2c(cn(-c3ccccc3)c1=O)C(=O)CC(C)(C)C2 has an RP-LC retention time of 878 s.
For CCN(CC)S(=O)(=O)c1ccc2c(c1)N(CC(=O)NCCc1ccccc1)C(=O)C1CCCCN21 (stereo unspecified), the RP-LC retention time was 1000 s.
Molecule COc1cccc(CNC(=O)N2CCC3(CC2)NC(=O)c2ccccc2O3)c1 has an RP-LC retention time of 739 s.
For O=C(NCCOc1ccc(F)cc1)c1cc(-c2cccs2)n(C2CCS(=O)(=O)C2)n1 (stereo unspecified), the RP-LC retention time was 793 s.
Molecule Cc1cc(=O)n(CC(=O)NCc2ccc(F)cc2F)c(N2CCCCC2)n1 has an RP-LC retention time of 657 s.
COC(=O)C1=CN(c2cccc(Br)c2)c2cc(F)ccc2S1(=O)=O showed an RP-LC retention time of 903 s.
CCCN1C(=O)COc2ccc(-c3csc(NC(=O)c4cccc(Br)c4)n3)cc21 showed an RP-LC retention time of 1160 s.
For c1ccc(-c2nc(-c3ccnc(N4CCCC4)c3)no2)nc1, the RP-LC retention time was 594 s.
With Cc1cc(N2CCN(C)CC2)nc2ccc(NC(=S)NCc3ccc(F)cc3Cl)cc12 the RP-LC retention time was 612 s.
Work on Cc1nc(-c2csc(S(=O)(=O)NCc3ccc(F)cc3Cl)c2)sc1C yielded an RP-LC retention time of 1070 s.
With Cc1nn(C(C)C(=O)NCCc2ccccc2)c(=O)c2c(-n3cccc3)n(-c3ccccc3)nc12 (stereo unspecified) the RP-LC retention time was 1070 s.
Molecule O=C(CSc1nnc(NC(=O)c2cccc([N+](=O)[O-])c2)s1)Nc1nccs1 has an RP-LC retention time of 702 s.
CC(=O)Nc1ccc(C)cc1S(=O)(=O)N1CCc2c(c(-c3nnc(-c4ccccc4)o3)nn2C)C1 showed an RP-LC retention time of 815 s.
COc1ccc2c(c1)C1(CCN(C(=O)Cc3ccccc3C)C1)C(=O)N2C (stereo unspecified) gave an RP-LC retention time of 826 s.
In the case of Cc1ncc2c(n1)C[C@@H]1CC[C@H]2N1C(=O)Nc1ccc(C)c(C)c1, the RP-LC retention time is reported as 707 s.
Cc1ccc(Sc2nccnc2N2CCC(C(=O)NCC3CCCO3)CC2)cc1 (stereo unspecified) gave an RP-LC retention time of 814 s.
In the case of COc1ccc(NC(=O)CC(C)=O)c(OC)c1, the RP-LC retention time is reported as 649 s.
In the case of CCOCCOC1CCN(S(=O)(=O)Cc2ccccc2F)CC1, the RP-LC retention time is reported as 877 s.
Cc1ccccc1-c1noc(CCc2nnc3ccc(N4CCN(c5ccccn5)CC4)nn23)n1 showed an RP-LC retention time of 647 s.
In the case of O=C(COC(=O)c1ccco1)Nc1ccc2c(c1)OCO2, the RP-LC retention time is reported as 688 s.
Molecule O=S(=O)(Cc1ccc(F)cc1)NCC1(c2ccc(F)cc2)CC1 has an RP-LC retention time of 700 s.
N#Cc1cccc(C(=O)NC2(c3nc(-c4ccncc4)no3)CCCCC2)c1 gave an RP-LC retention time of 875 s.
For O=C(NCC1CC(=O)N(c2ccc3c(c2)OCO3)C1)c1ccccc1F (stereo unspecified), the RP-LC retention time was 664 s.
O=C(c1nnc(-c2ccc(S(=O)(=O)N3CCCC3)cc2)o1)N1CCCC1 showed an RP-LC retention time of 764 s.
With CCNC(=O)NCCc1cn(C)c2ncccc12 the RP-LC retention time was 556 s.
Nn1c(Cc2ccccc2)nnc1Cc1ccccc1 gave an RP-LC retention time of 744 s.
Molecule CCC(c1cccs1)N1C(=O)[C@H]2CN(S(=O)(=O)c3ccc(C)c(C)c3)C[C@H]2C1=O (stereo partly specified) has an RP-LC retention time of 1070 s.
CN1CCN(CCNC(=O)C2CCCN(c3ncnc4c3nc3n4CCCCC3)C2)CC1 (stereo unspecified) gave an RP-LC retention time of 570 s.
With Cc1nc(Nc2ccccn2)sc1C(=O)N1CCN(C2CCCCC2)CC1 the RP-LC retention time was 597 s.
Clc1cccc(-n2ncc3c(SCc4cccnc4)ncnc32)c1 gave an RP-LC retention time of 820 s.
CCCCNC(=O)CSc1nnc(C)c2c(C)n(-c3ccccc3)nc12 gave an RP-LC retention time of 646 s.
In the case of CCc1nc(-c2cc(S(=O)(=O)N3CCC(C(=O)NCc4ccc(C)o4)CC3)c(C)s2)no1, the RP-LC retention time is reported as 969 s.
CCCNC(=O)N1CCCCCC1CN1CCC(C)CC1 (stereo unspecified) showed an RP-LC retention time of 624 s.
CC(C)Oc1ccc(-c2noc(CN3N=NC4C(=O)N(c5ccc(C(C)C)cc5)C(=O)C43)n2)cc1 (stereo unspecified) showed an RP-LC retention time of 1180 s.
In the case of CCn1c(=O)c(SCC(=O)NCCCN2CCCC(C)C2)nc2ccccc21 (stereo unspecified), the RP-LC retention time is reported as 615 s.
